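96-well plates; 48 h exposure; 5 concentrations. Endpoints by linear interpolation between flanking doses. Not reached: highest tested concentration assigned. Here, GI50 denotes the concentration required for 50% inhibition of growth.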 Calls of active or inactive are those of the source. No stated cut-off is given here; in the data, active = GI50 up to about 1.1 µM and inactive = higher.
Assays:
Assay in all cases: growth of human tumour cells (NCI), 48 h
[1] = tested on: SW-620
[2] = tested on: SK-MEL-2
[3] = tested on: SNB-19
[4] = tested on: LOX IMVI
[5] = tested on: OVCAR-8
[6] = tested on: SK-OV-3
[7] = tested on: TK-10
[8] = tested on: KM12
[9] = tested on: OVCAR-4
[10] = tested on: SF-295
[11] = tested on: MOLT-4
[12] = tested on: NCI-H522
[13] = tested on: HT-29
[14] = tested on: 786-0
[15] = tested on: RXF 393
[16] = tested on: SK-MEL-28
[17] = tested on: HOP-92
[18] = tested on: DU-145
[19] = tested on: MDA-MB-435

Row | SMILES | GI50 [1] | GI50 [2] | GI50 [3] | GI50 [4] | GI50 [5] | GI50 [6] | GI50 [7] | GI50 [8] | GI50 [9] | GI50 [10] | GI50 [11] | GI50 [12] | GI50 [13] | GI50 [14] | GI50 [15] | GI50 [16] | GI50 [17] | GI50 [18] | GI50 [19]
1 | COC1=CC(=O)C2[C@H]3Cc4ccccc4[C@H]3C2(C)C1=O (stereo not given in full) | > 100 µM (inactive) | > 100 µM (inactive) | > 100 µM (inactive) | > 100 µM (inactive) | > 100 µM (inactive) | > 100 µM (inactive) | > 100 µM (inactive) | > 100 µM (inactive) | > 100 µM (inactive) | > 100 µM (inactive) | 91.6 µM (inactive) | 68.4 µM (inactive) | > 100 µM (inactive) | > 100 µM (inactive) | > 100 µM (inactive) | > 100 µM (inactive) | > 100 µM (inactive) | – | –
2 | O=C(CC1(O)C(=O)Nc2ccccc21)c1cccc(O)c1 (stereo not given) | > 100 µM (inactive) | > 100 µM (inactive) | > 100 µM (inactive) | > 100 µM (inactive) | > 100 µM (inactive) | > 100 µM (inactive) | > 100 µM (inactive) | – | > 100 µM (inactive) | > 100 µM (inactive) | > 100 µM (inactive) | > 100 µM (inactive) | > 100 µM (inactive) | > 100 µM (inactive) | > 100 µM (inactive) | > 100 µM (inactive) | > 100 µM (inactive) | – | –
3 | CCOC(=O)c1c(N2CCCC2)nsc1Nc1ccccc1 | > 100 µM (inactive) | > 100 µM (inactive) | > 100 µM (inactive) | > 100 µM (inactive) | > 100 µM (inactive) | – | > 100 µM (inactive) | > 100 µM (inactive) | > 100 µM (inactive) | > 100 µM (inactive) | > 100 µM (inactive) | – | > 100 µM (inactive) | > 100 µM (inactive) | > 100 µM (inactive) | > 100 µM (inactive) | 40.6 µM (inactive) | > 100 µM (inactive) | –
4 | C/N=N/N(C)C(=O)NC | > 100 µM (inactive) | > 100 µM (inactive) | > 100 µM (inactive) | > 100 µM (inactive) | > 100 µM (inactive) | > 100 µM (inactive) | > 100 µM (inactive) | > 100 µM (inactive) | > 100 µM (inactive) | > 100 µM (inactive) | > 100 µM (inactive) | > 100 µM (inactive) | > 100 µM (inactive) | > 100 µM (inactive) | > 100 µM (inactive) | > 100 µM (inactive) | > 100 µM (inactive) | – | –
5 | COc1cc(C(=O)N[C@H]2CCc3cc(OC)c(OC)c(OC)c3-c3ccc(SC)c(=O)cc32)cc(OC)c1OC | 0.00741 µM (active) | 0.0102 µM (active) | 0.00871 µM (active) | 0.00603 µM (active) | 0.00813 µM (active) | 0.00655 µM (active) | 0.215 µM (active) | 0.0025 µM (active) | 1.42 µM (inactive) | 0.00962 µM (active) | 0.00916 µM (active) | 0.00428 µM (active) | 0.00641 µM (active) | 0.0223 µM (active) | 0.00752 µM (active) | 12.3 µM (inactive) | 0.06 µM (active) | – | –
6 | CN(C)C(=S)/N=c1\ssc(=S)n1Cc1ccccn1 | 2.7 µM (inactive) | 1.94 µM (inactive) | 6.55 µM (inactive) | 5.06 µM (inactive) | 4.54 µM (inactive) | 4.67 µM (inactive) | 7.55 µM (inactive) | 1.14 µM (inactive) | 14 µM (inactive) | 3.8 µM (inactive) | 3.11 µM (inactive) | 0.859 µM (active) | 2.78 µM (inactive) | 4.24 µM (inactive) | 3.01 µM (inactive) | 4.65 µM (inactive) | 4.12 µM (inactive) | – | –
7 | COc1ccc(C(=O)N/N=C/c2c(C)n(C)n(-c3ccccc3)c2=O)cc1 | > 100 µM (inactive) | > 100 µM (inactive) | > 100 µM (inactive) | > 100 µM (inactive) | > 100 µM (inactive) | > 100 µM (inactive) | > 100 µM (inactive) | > 100 µM (inactive) | > 100 µM (inactive) | > 100 µM (inactive) | > 100 µM (inactive) | > 100 µM (inactive) | > 100 µM (inactive) | > 100 µM (inactive) | > 100 µM (inactive) | > 100 µM (inactive) | > 100 µM (inactive) | – | –
8 | C/C(=N\O)c1ccc2ccc3ccccc3c2c1 | 30.6 µM (inactive) | 43 µM (inactive) | 62.8 µM (inactive) | 24.5 µM (inactive) | 21.6 µM (inactive) | > 100 µM (inactive) | 37.9 µM (inactive) | 21.5 µM (inactive) | 23 µM (inactive) | 37.3 µM (inactive) | 18.5 µM (inactive) | 29.9 µM (inactive) | 28.3 µM (inactive) | > 100 µM (inactive) | 34.3 µM (inactive) | 44.2 µM (inactive) | – | 33.3 µM (inactive) | 22.2 µM (inactive)
